From ChEMBL document CHEMBL4261534, “Synthesis, α-glucosidase inhibition and molecular docking studies of novel thiazolidine-2,4-dione or rhodanine derivatives” (Medchemcomm, 2017) come the findings set out here.

The experiment deals with alpha-glucosidase (Saccharomyces cerevisiae). Kind of experiment: Inhibition of alpha-glucosidase (unknown origin) using p-nitrophenyl alpha-D-glucopyranoside as substrate preincubated for 15 mins followed by substrate addition measured after 30 mins by spectrophotometric method.
`COc1cc(/C=C2\SC(=O)NC2=O)ccc1OCN1C(=O)c2ccccc2C1=O` showed an IC50 of 35.14 µM.

As for `O=C1NC(=O)/C(=C/c2cc([N+](=O)[O-])ccc2OCN2C(=O)c3ccccc3C2=O)S1`, the IC50 came to 50.45 µM.

Compound `O=C1NC(=O)/C(=C/c2ccc(OCN3C(=O)c4ccccc4C3=O)c([N+](=O)[O-])c2)S1` gave an IC50 of 22.48 µM.

Compound `O=C1NC(=S)S/C1=C\c1cc([N+](=O)[O-])ccc1OCN1C(=O)c2ccccc2C1=O` had an IC50 of 35.79 µM.

As for `O=C1NC(=O)/C(=C/c2ccccc2OCN2C(=O)c3ccccc3C2=O)S1`, the IC50 is more than 100 µM.

`COc1cc(/C=C2\SC(=S)NC2=O)ccc1OCN1C(=O)c2ccccc2C1=O`: the IC50 was 16.11 µM.

Consider `CCOc1cc(/C=C2\SC(=S)NC2=O)ccc1OCN1C(=O)c2ccccc2C1=O`, for which the IC50 amounted to 7.72 µM.

Regarding `COc1cc(/C=C2\SC(=S)NC2=O)cc(OC)c1OCN1C(=O)c2ccccc2C1=O`, the IC50 came to 39.81 µM.

The compound `O=C1NC(=O)/C(=C/c2ccc(OCN3C(=O)c4ccccc4C3=O)cc2)S1` had an IC50 of 25.6 µM.

In the case of `O=C1NC(=S)S/C1=C\c1ccccc1OCN1C(=O)c2ccccc2C1=O`, the IC50 is more than 100 µM.

Compound `COc1cc(/C=C2\SC(=O)NC2=O)cc(OC)c1OCN1C(=O)c2ccccc2C1=O` had an IC50 of more than 100 µM.

In turn, `O=C1NC(=S)S/C1=C\c1cc(Cl)ccc1OCN1C(=O)c2ccccc2C1=O` showed an IC50 of 34.82 µM.

`O=C1NC(=O)/C(=C/c2cccc(OCN3C(=O)c4ccccc4C3=O)c2)S1` gave an IC50 of more than 100 µM.

In turn, `CCOc1cc(/C=C2\SC(=O)NC2=O)ccc1OCN1C(=O)c2ccccc2C1=O` had an IC50 of 29.26 µM.

As to `O=C1NC(=O)/C(=C/c2cc(Cl)ccc2OCN2C(=O)c3ccccc3C2=O)S1`, the concentration for half-maximal inhibition (IC50) was more than 100 µM.

With `O=C1NC(=S)S/C1=C\c1cccc(OCN2C(=O)c3ccccc3C2=O)c1`, the IC50 was 33.98 µM.

In turn, `O=C1NC(=S)S/C1=C\c1ccc(OCN2C(=O)c3ccccc3C2=O)c(Cl)c1` gave an IC50 of 5.44 µM.

Consider `O=C1NC(=O)/C(=C/c2ccc(OCN3C(=O)c4ccccc4C3=O)c(Cl)c2)S1`, for which the IC50 worked out at 20.95 µM.

As to `O=C1NC(=S)S/C1=C\c1ccc(OCN2C(=O)c3ccccc3C2=O)cc1`, the IC50 came to 7.91 µM.

With `COc1cccc(/C=C2\SC(=S)NC2=O)c1OCN1C(=O)c2ccccc2C1=O`, the IC50 was more than 100 µM.

As to `O=C1NC(=S)S/C1=C\c1ccc(OCN2C(=O)c3ccccc3C2=O)c([N+](=O)[O-])c1`, the IC50 was 6.59 µM.

Consider `COc1cccc(/C=C2\SC(=O)NC2=O)c1OCN1C(=O)c2ccccc2C1=O`, for which the IC50 is more than 100 µM.
